Experimental data: BindingDB's records for patent WO2022021841 (Sichuan University, 2022)

Tests used:
[1] = molecular target: T1, Replicase polyprotein 1ab (Severe acute respiratory syndrome coronavirus 2, UniProt P0DTD1); assay: SARS-CoV-2 in Vero E6
[2] = molecular target: T1, Replicase polyprotein 1ab; assay: SARS-CoV-2 Coronavirus 3C Protease FRET Assay
Method: IC50 values were calculated by fitting a curve of Vmax to experimental values with the controls (DMSO) as the top and bottom limits of the curve. […] GraphPad Prism is the analysis tool for all measurements.

Compound | EC50 [1] [nM] | Ki [2] [nM]
CC1(C)[C@@H]2C(C(=O)N[C@H](C=O)C[C@@H]3CCNC3=O)N(C(=O)COc3cc(F)cc(F)c3)C[C@@H]21 (some centres undefined) [WO2022021841, 34] | 1540 | 20
O=C[C@H](C[C@@H]1CCNC1=O)NC(=O)C1[C@@H]2CCC[C@H]2CN1C(=O)CCc1cccc(F)c1 (some centres undefined) [WO2022021841, 37] | 2970 | 7
O=C[C@H](C[C@@H]1CCNC1=O)NC(=O)C1[C@H]2CCC[C@H]2CN1C(=O)CCc1cc(F)cc(F)c1 (some centres undefined) [WO2022021841, 19] | 5630 | 11
COc1ccc(OCC(=O)N2C[C@@H]3CCC[C@@H]3C2C(=O)N[C@H](C=O)C[C@@H]2CCNC2=O)cc1 (some centres undefined) [WO2022021841, 17] | 24700 | 20
CC1(C)[C@@H]2C(C(=O)N[C@H](C=O)C[C@@H]3CCNC3=O)N(C(=O)COc3ccc(Cl)c(Br)c3)C[C@@H]21 (some centres undefined) [WO2022021841, 30] | 1150 | 14
CC1(C)[C@@H]2C(C(=O)N[C@H](C=O)C[C@@H]3CCNC3=O)N(C(=O)COc3ccc4ccccc4c3)C[C@@H]21 (some centres undefined) [WO2022021841, 27] | 1270 | 54
O=C[C@H](C[C@@H]1CCNC1=O)NC(=O)C1[C@@H]2CCC[C@H]2CN1C(=O)COc1ccc(Cl)c(Cl)c1 (some centres undefined) [WO2022021841, 45] | 830 | 19
COc1ccc(OCC(=O)N2C[C@H]3[C@@H](C2C(=O)N[C@H](C=O)C[C@@H]2CCNC2=O)C3(C)C)cc1OC (some centres undefined) [WO2022021841, 20] | 1730 | 12
O=C[C@H](C[C@@H]1CCNC1=O)NC(=O)C1[C@@H]2CCC[C@H]2CN1C(=O)COc1ccc(Cl)cc1 (some centres undefined) [WO2022021841, 26] | 670 | 9
CC1(C)[C@@H]2C(C(=O)N[C@H](C=O)C[C@@H]3CCNC3=O)N(C(=O)CCc3cccc(F)c3)C[C@@H]21 (some centres undefined) [WO2022021841, 36] | 2230 | 16
CC1(C)[C@@H]2C(C(=O)N[C@H](C=O)C[C@@H]3CCNC3=O)N(C(=O)COc3ccc(Cl)cc3)C[C@@H]21 (some centres undefined) [WO2022021841, 43] | 530 | 9
CC1(C)[C@@H]2C(C(=O)N[C@H](C=O)C[C@@H]3CCNC3=O)N(C(=O)COc3ccc(Br)cc3Cl)C[C@@H]21 (some centres undefined) [WO2022021841, 31] | 1180 | 15
COc1ccc(OCC(=O)N2C[C@H]3[C@@H](C2C(=O)N[C@H](C=O)C[C@@H]2CCNC2=O)C3(C)C)cc1F (some centres undefined) [WO2022021841, 28] | 4680 | 47
CC1(C)[C@@H]2C(C(=O)N[C@H](C=O)C[C@@H]3CCNC3=O)N(C(=O)COc3ccc(F)c(F)c3)C[C@@H]21 (some centres undefined) [WO2022021841, 33] | 5570 | 13
CC1(C)[C@@H]2C(C(=O)N[C@H](C=O)C[C@@H]3CCNC3=O)N(C(=O)COc3ccc(Cl)cc3Cl)C[C@@H]21 (some centres undefined) [WO2022021841, 44] | 660 | 10
COC(=O)C[C@H](NC(=O)[C@@H]1[C@@H]2[C@H](CN1C(=O)/C=C/c1ccccc1)C2(C)C)C(=O)CF [WO2022021841, 2] |  | 110
CC1CNC(=O)[C@@H]1C[C@@H](C=O)NC(=O)C1[C@@H]2CCC[C@H]2CN1C(=O)COc1ccc(Cl)cc1Cl (some centres undefined) [WO2022021841, 40] |  | 17
Cc1cc(Cl)ccc1OCC(=O)N1C[C@@H]2CCC[C@H]2C1C(=O)N[C@H](C=O)C[C@@H]1CCNC1=O (some centres undefined) [WO2022021841, 24] | 1500 | 22
